Values quoted from earlier work in patent publication US6503745B1, “Cyclopentane and cyclopentene compounds and use for detecting influenza virus” (priority 1998, dated 2003).
Like-named read-outs stand apart in the source and are kept apart here.

Key:
influenza [1] = settings: in animals
influenza [2] = settings: in human volunteers

SMILES	in vivo antiviral activity (influenza [1])	binder of influenza neuraminidase (influenza neuraminidase)	in vivo antiviral activity (influenza [2])
CC(=O)NC1C(NC(=N)N)C=C(C(=O)O)OC1[C@H](O)[C@H](O)CO (stereo partly shown) [GG167, 2,3-didehydro-2,4-dideoxy-4-guanidinyl-N-acetylneuraminic acid]	potent in vivo antiviral activity	potent binder	potent in vivo antiviral activity
CCC(CC)O[C@@H]1C=C(C(=O)O)C[C@H](N)[C@H]1NC(C)=O [GS 4071, (3R,4R,5S)-4-acetamido-5-amino-3-(1-ethylpropoxy)-1-cyclohexene-1-carboxylic acid]		potent binders	
